US12522607B2, “Substituted pyrazolo[3,4-d]pyrimidines as wee-1 inhibitors” (WIGEN BIOMEDICINE TECHNOLOGY (SHANGHAI) CO., LTD., priority 2020, dated 2026)

How the values were obtained:
Wee-1 kinase = target: T1, Wee-1 kinase (Homo sapiens, UniProt P30291); experiment: Inhibitory activity against Wee-1 kinase (Lanthra Screen Wee-1 kinase kit, Tracer 178); format: binding; details: Wee-1 kinase 5 nM, Tracer 178 50 nM, 1 h room temperature
T1 construct: purchased Invitrogen
Procedure, shortened: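 Compound gradient in DMSO mixed with 5 nM Wee-1, 2 nM Eu-anti-GST antibody and 50 nM Tracer 178 (all final). Read after one hour at room temperature; IC50 calculated against the DMSO solvent control.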

HT29 cells = experiment: Antiproliferative activity against HT29 cells (Cell Titer-Lumi, ATP content); format: cell-based; details: Homo sapiens, HT-29, 72 after compound addition, read-out: HT-29 cells Anti-proliferative activity (IC50 for the inhibition against HT-29 cell growth)
Procedure, shortened: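 Growth inhibition IC50 derived from luminescent ATP content after 72 (units as printed) of compound exposure over a dilution gradient. Seeding density 3000 cells per well; compound added once cells had adhered overnight.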

T1 sequence (P30291 whole entry): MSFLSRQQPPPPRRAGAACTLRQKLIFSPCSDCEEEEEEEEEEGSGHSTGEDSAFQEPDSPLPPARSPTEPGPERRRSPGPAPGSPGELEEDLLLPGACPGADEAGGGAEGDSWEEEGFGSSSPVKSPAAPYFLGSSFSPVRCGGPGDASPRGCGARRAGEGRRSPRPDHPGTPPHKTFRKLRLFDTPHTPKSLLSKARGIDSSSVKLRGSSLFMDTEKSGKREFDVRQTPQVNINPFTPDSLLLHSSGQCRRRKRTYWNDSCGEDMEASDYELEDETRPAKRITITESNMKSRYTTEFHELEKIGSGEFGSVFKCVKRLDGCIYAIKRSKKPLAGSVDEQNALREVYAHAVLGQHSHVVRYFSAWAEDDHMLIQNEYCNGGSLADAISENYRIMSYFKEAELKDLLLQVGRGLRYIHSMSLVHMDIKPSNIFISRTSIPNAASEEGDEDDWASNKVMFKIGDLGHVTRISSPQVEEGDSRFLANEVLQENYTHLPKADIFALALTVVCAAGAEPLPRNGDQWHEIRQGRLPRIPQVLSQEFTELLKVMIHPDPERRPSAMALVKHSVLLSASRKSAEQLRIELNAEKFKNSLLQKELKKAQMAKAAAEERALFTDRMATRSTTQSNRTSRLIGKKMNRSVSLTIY

Row | Structure (SMILES) | IC50 (Wee-1 kinase) [nM] | IC50 (HT29 cells) [nM]
1 | C=CCn1c(=O)c2cnc(Nc3cc(OC)cc(C4CCNCC4)c3)nc2n1-c1ccc(=O)n(C(C)C)n1 [Compound 212] | ≤ 30 | ≤ 1000
2 | C=CCn1c(=O)c2cnc(Nc3cc(OC)cc(C4CCN(C)CC4)c3)nc2n1-c1ccc(=O)n(C(C)C)n1 [Compound 213] | ≤ 30 | ≤ 1000
3 | C=CCn1c(=O)c2cnc(Nc3ccc(CCN(C)C)cc3)nc2n1-c1ccc(=O)n(C(C)C)n1 [Compound 214] | ≤ 30 | ≤ 1000
4 | C=CCn1c(=O)c2cnc(Nc3ccc(CCN(C)C)c(C)c3)nc2n1-c1ccc(=O)n(C(C)C)n1 [Compound 215] | ≤ 30 | ≤ 1000
5 | C=CCn1c(=O)c2cnc(Nc3ccc(OCCN(C)C)cc3)nc2n1-c1ccc(=O)n(C(C)C)n1 [Compound 216] | ≤ 30 | ≤ 1000
6 | C=CCn1c(=O)c2cnc(Nc3ccc(OCCN(C)C)c(C)c3)nc2n1-c1ccc(=O)n(C(C)C)n1 [Compound 217] | ≤ 30 | ≤ 1000
7 | C=CCn1c(=O)c2cnc(Nc3ccc4cc(N5CCN(C)CC5)ccc4c3)nc2n1-c1ccc(=O)n(C(C)C)n1 [Compound 218] | ≤ 30 | ≤ 1000
8 | C=CCn1c(=O)c2cnc(Nc3ccc4cc(N5CCN(C)CC5)cnc4c3)nc2n1-c1ccc(=O)n(C(C)C)n1 [Compound 219] | ≤ 30 | ≤ 1000
9 | C=CCn1c(=O)c2cnc(Nc3ccc4c(c3)CC(N(C)C)C4)nc2n1-c1ccc(=O)n(C(C)C)n1 (centres unmarked) [Compound 220] | ≤ 30 | ≤ 1000
10 | C=CCn1c(=O)c2cnc(Nc3ccc4c(c3)CNC4)nc2n1-c1ccc(=O)n(C(C)C)n1 [Compound 221] | ≤ 30 | 1000 to 3000
11 | C=CCn1c(=O)c2cnc(Nc3ccc4c(c3)CN(C)C4)nc2n1-c1ccc(=O)n(C(C)C)n1 [Compound 222] | ≤ 30 | ≤ 1000
12 | C=CCn1c(=O)c2cnc(Nc3ccc4c(c3)CNC4(C)C)nc2n1-c1ccc(=O)n(C(C)C)n1 [Compound 223] | ≤ 30 | ≤ 1000
13 | C=CCn1c(=O)c2cnc(Nc3ccc4c(c3)CN(C)C4(C)C)nc2n1-c1ccc(=O)n(C(C)C)n1 [Compound 224] | ≤ 30 | ≤ 1000
14 | C=CCn1c(=O)c2cnc(Nc3ccc4c(c3)CNCC4)nc2n1-c1ccc(=O)n(C(C)C)n1 [Compound 225] | ≤ 30 | ≤ 1000
15 | C=CCn1c(=O)c2cnc(Nc3ccc4c(c3)CN(C)CC4)nc2n1-c1ccc(=O)n(C(C)C)n1 [Compound 226] | ≤ 30 | ≤ 1000
16 | C=CCn1c(=O)c2cnc(Nc3ccc4c(c3)CN(C(C)C)CC4)nc2n1-c1ccc(=O)n(C(C)C)n1 [Compound 227] | ≤ 30 | ≤ 1000
17 | C=CCn1c(=O)c2cnc(Nc3ccc4c(c3)CCNC4)nc2n1-c1ccc(=O)n(C(C)C)n1 [Compound 228] | ≤ 30 | ≤ 1000
18 | C=CCn1c(=O)c2cnc(Nc3ccc4c(c3)CCN(C)C4)nc2n1-c1ccc(=O)n(C(C)C)n1 [Compound 229] | ≤ 30 | ≤ 1000
19 | C=CCn1c(=O)c2cnc(Nc3ccc4c(c3)CCN(C(C)C)C4)nc2n1-c1ccc(=O)n(C(C)C)n1 [Compound 230] | ≤ 30 | ≤ 1000
20 | C=CCn1c(=O)c2cnc(Nc3ccc4c(c3)CNCC43CC3)nc2n1-c1ccc(=O)n(C(C)C)n1 [Compound 231] | ≤ 30 | ≤ 1000
21 | C=CCn1c(=O)c2cnc(Nc3ccc4c(c3)CN(C)CC43CC3)nc2n1-c1ccc(=O)n(C(C)C)n1 [Compound 232] | ≤ 30 | ≤ 1000
22 | C=CCn1c(=O)c2cnc(Nc3ccc4c(c3)CN(C(C)C)CC43CC3)nc2n1-c1ccc(=O)n(C(C)C)n1 [Compound 233] | ≤ 30 | ≤ 1000
23 | C=CCn1c(=O)c2cnc(Nc3ccc4c(c3)C3(CC3)CNC4)nc2n1-c1ccc(=O)n(C(C)C)n1 [Compound 234] | ≤ 30 | ≤ 1000
24 | C=CCn1c(=O)c2cnc(Nc3ccc4c(c3)C3(CC3)CN(C)C4)nc2n1-c1ccc(=O)n(C(C)C)n1 [Compound 235] | ≤ 30 | ≤ 1000
25 | C=CCn1c(=O)c2cnc(Nc3ccc4c(c3)C3(CC3)CN(C(C)C)C4)nc2n1-c1ccc(=O)n(C(C)C)n1 [Compound 236] | ≤ 30 | ≤ 1000
26 | C=CCn1c(=O)c2cnc(Nc3ccc4c(c3)CNCC4(C)C)nc2n1-c1ccc(=O)n(C(C)C)n1 [Compound 237] | ≤ 30 | ≤ 1000
27 | C=CCn1c(=O)c2cnc(Nc3ccc4c(c3)CN(C)CC4(C)C)nc2n1-c1ccc(=O)n(C(C)C)n1 [Compound 238] | ≤ 30 | ≤ 1000
28 | C=CCn1c(=O)c2cnc(Nc3ccc4c(c3)CN(C(C)C)CC4(C)C)nc2n1-c1ccc(=O)n(C(C)C)n1 [Compound 239] | ≤ 30 | ≤ 1000

Row | Structure (SMILES) | IC50 (Wee-1 kinase) [nM] | IC50 (HT29 cells) [nM]
29 | C=CCn1c(=O)c2cnc(Nc3ccc4c(c3)CNCC4(F)F)nc2n1-c1ccc(=O)n(C(C)C)n1 [Compound 240] | ≤ 30 | ≤ 1000
30 | C=CCn1c(=O)c2cnc(Nc3ccc4c(c3)CN(C)CC4(F)F)nc2n1-c1ccc(=O)n(C(C)C)n1 [Compound 241] | ≤ 30 | ≤ 1000
31 | C=CCn1c(=O)c2cnc(Nc3ccc4c(c3)CN(C(C)C)CC4(F)F)nc2n1-c1ccc(=O)n(C(C)C)n1 [Compound 242] | ≤ 30 | ≤ 1000
32 | C=CCn1c(=O)c2cnc(Nc3ccc4c(c3)C(C)(C)CNC4)nc2n1-c1ccc(=O)n(C(C)C)n1 [Compound 243] | ≤ 30 | ≤ 1000
33 | C=CCn1c(=O)c2cnc(Nc3ccc4c(c3)C(C)(C)CN(C)C4)nc2n1-c1ccc(=O)n(C(C)C)n1 [Compound 244] | ≤ 30 | ≤ 1000
34 | C=CCn1c(=O)c2cnc(Nc3ccc4c(c3)C(C)(C)CN(C(C)C)C4)nc2n1-c1ccc(=O)n(C(C)C)n1 [Compound 245] | ≤ 30 | ≤ 1000
35 | C=CCn1c(=O)c2cnc(Nc3ccc(N(C)CCN(C)C)nc3)nc2n1-c1ccc(=O)n(C(C)C)n1 [Compound 246] | ≤ 30 | ≤ 1000
36 | C=CCn1c(=O)c2cnc(Nc3ccc(N4CCN(C)CC4)nc3)nc2n1-c1ccc(=O)n(C(C)C)n1 [Compound 247] | ≤ 30 | ≤ 1000
37 | C=CCn1c(=O)c2cnc(Nc3ccc(N4CCN(C)CC4)cn3)nc2n1-c1ccc(=O)n(C(C)C)n1 [Compound 248] | ≤ 30 | ≤ 1000
38 | C=CCn1c(=O)c2cnc(Nc3cc(OC)c(N4CCN(C)CC4)cn3)nc2n1-c1ccc(=O)n(C(C)C)n1 [Compound 249] | ≤ 30 | ≤ 1000
39 | C=CCn1c(=O)c2cnc(Nc3cnn(C4CCN(C)CC4)c3)nc2n1-c1ccc(=O)n(C(C)C)n1 [Compound 250] | 30 to 100 | 1000 to 3000
40 | C=CCn1c(=O)c2cnc(Nc3cnn(C4CCN(C(C)C)CC4)c3)nc2n1-c1ccc(=O)n(C(C)C)n1 [Compound 251] | 30 to 100 | 1000 to 3000
41 | C=CCn1c(=O)c2cnc(Nc3cc(N4CCN(C)CC4)c4cc[nH]c4c3)nc2n1-c1ccc(=O)n(C(C)C)n1 [Compound 252] | ≤ 30 | ≤ 1000
42 | C=CCn1c(=O)c2cnc(Nc3cc(N4CCN(C(C)C)CC4)c4cc[nH]c4c3)nc2n1-c1ccc(=O)n(C(C)C)n1 [Compound 253] | ≤ 30 | ≤ 1000
43 | C=CCn1c(=O)c2cnc(Nc3cc(N4CCC(N(C)C)CC4)c4cc[nH]c4c3)nc2n1-c1ccc(=O)n(C(C)C)n1 [Compound 254] | ≤ 30 | ≤ 1000
44 | C=CCn1c(=O)c2cnc(Nc3cc(N4CCN(C)CC4)c4ccn(C)c4c3)nc2n1-c1ccc(=O)n(C(C)C)n1 [Compound 255] | ≤ 30 | ≤ 1000
45 | C=CCn1c(=O)c2cnc(Nc3cc(N4CCN(C(C)C)CC4)c4ccn(C)c4c3)nc2n1-c1ccc(=O)n(C(C)C)n1 [Compound 256] | ≤ 30 | ≤ 1000
46 | C=CCn1c(=O)c2cnc(Nc3cc(N4CCC(N(C)C)CC4)c4ccn(C)c4c3)nc2n1-c1ccc(=O)n(C(C)C)n1 [Compound 257] | ≤ 30 | ≤ 1000
47 | C=CCn1c(=O)c2cnc(Nc3cc(N4CCN(C)CC4)c4ccn(C5CC5)c4c3)nc2n1-c1ccc(=O)n(C(C)C)n1 [Compound 258] | ≤ 30 | ≤ 1000
48 | C=CCn1c(=O)c2cnc(Nc3cc(N4CCN(C(C)C)CC4)c4ccn(C5CC5)c4c3)nc2n1-c1ccc(=O)n(C(C)C)n1 [Compound 259] | ≤ 30 | ≤ 1000
49 | C=CCn1c(=O)c2cnc(Nc3cc(N4CCC(N(C)C)CC4)c4ccn(C5CC5)c4c3)nc2n1-c1ccc(=O)n(C(C)C)n1 [Compound 260] | ≤ 30 | ≤ 1000
50 | C=CCn1c(=O)c2cnc(Nc3ccc4c(N5CCN(C)CC5)c[nH]c4c3)nc2n1-c1ccc(=O)n(C(C)C)n1 [Compound 261] | ≤ 30 | ≤ 1000
51 | C=CCn1c(=O)c2cnc(Nc3ccc4c(N5CCN(C(C)C)CC5)c[nH]c4c3)nc2n1-c1ccc(=O)n(C(C)C)n1 [Compound 262] | ≤ 30 | ≤ 1000
52 | C=CCn1c(=O)c2cnc(Nc3ccc4c(N5CCC(N(C)C)CC5)c[nH]c4c3)nc2n1-c1ccc(=O)n(C(C)C)n1 [Compound 263] | ≤ 30 | ≤ 1000
53 | C=CCn1c(=O)c2cnc(Nc3ccc4c(N5CCN(C)CC5)cn(C)c4c3)nc2n1-c1ccc(=O)n(C(C)C)n1 [Compound 264] | ≤ 30 | ≤ 1000
54 | C=CCn1c(=O)c2cnc(Nc3ccc4c(N5CCN(C(C)C)CC5)cn(C)c4c3)nc2n1-c1ccc(=O)n(C(C)C)n1 [Compound 265] | ≤ 30 | ≤ 1000
55 | C=CCn1c(=O)c2cnc(Nc3ccc4c(N5CCC(N(C)C)CC5)cn(C)c4c3)nc2n1-c1ccc(=O)n(C(C)C)n1 [Compound 266] | ≤ 30 | ≤ 1000
